Source: patent publication US9522260B2, “Apparatus for the controlled release of topical nitric oxide” (University of Windsor, priority 2011, dated 2016)

Test: Thermal and storage stability of AuNP nanocomposites and SNOG
Type: physicochemical
Description: All of the AuNP-nanocomposites i) to iv) as well as SNOG solutions 1 mM, dissolved in distilled deionized water and containing 100 μM diethylenetriaminepentaacetic acid (DPTA) a metal chelator were stored at 5° C., 25° C. and 55° C. for 1 month. These components were then added to the testing apparatus 90 (FIG. 3) and their NO-release characteristics were compared to fresh samples.
In one simplest and most cost effective manner to prepare an AuNP-nanocomposite, cotton gauze with AuNP (˜10 nm) is prepared by a conventional citrate reduction method.
SNOG solutions (1 mM) containing DPTA (0.1 mm) decomposed ˜5% upon incubation at 40° C. for 7 days. Stability of the SNOG may be increased further by either suspending it in polyethylene glycol or dissolving it in glycerol.

SMILES: N[C@@H](CCC(=O)N[C@@H](CSN=O)C(=O)NCC(=O)O)C(=O)O [SNOG, S-nitrosoglutathione]
- decomposition of SNOG solution (SNOG solutions (1 mM) containing DPTA (0.1 mm), incubation at 40° C. for 7 days): ~5%
- thermal stability of solid SNOG (solid, storage at 40° C. for one week, preliminary experiments): thermally stable
